Assay results: patent US9981988B2, “Polymorphic forms and co-crystals of a c-Met inhibitor” (AMGEN, INC., priority 2014, dated 2018)

What was measured:
Type in all cases: physicochemical
[1] = Equilibrium solubility in water and aqueous media; details: water, 22.5 °C, thermodynamic from solid
[2] = Equilibrium solubility in water and aqueous media; details: 22.5 °C, thermodynamic from solid
Experimental: In all studies, excess solid of the compound was allowed to equilibrate at a temperature in the range of about 20 to 25° C. for 12-48 hours while stirring.

[3] = Dynamic vapor sorption / moisture sorption
Experimental: Moisture sorption data was collected using a Surface Measurement Systems DVS-Advantage instrument. Equilibrium criteria were set at ±0.002% weight change in 5 minutes with a maximum equilibrium time of 360 minutes.

[4] = Solubility in organic solvents; details: 20 °C, thermodynamic from solid, 20 to 25° C., at least 12 hours
Experimental: In all studies, excess solid of the compound was allowed to equilibrate for at least 12 hours while stirring.

[5] = Solid state stability under accelerated stability testing conditions, HPLC
Experimental: High performance liquid chromatography (HPLC) analyses were performed on an Agilent 1100 or 1200 series HPLC equipped with a binary pump, diode-array detector, thermostated column compartment, and auto sampler. Separation and elution was achieved using a reverse-phase column and 0.1% triflouroacetic acid/water/acetonitrile mobile phase.
Solid samples of the free base monohydrate form of Compound M were placed under accelerated stability testing conditions (25° C./60% RH, 40° C./75% RH and 60° C./ambient RH) for 12 weeks.

solubility at 138 h ([1]; pH 4.09, water, Sample 2, duration 138 h, isolation method 1, pH 4.09, about 20 to 25° C.): 259 µg/mL | solubility at 69 h ([1]; pH 6.85, water, Sample 3, duration 69 h, isolation method 2, pH 6.85, about 20 to 25° C.): 262 µg/mL | solubility ([2]; 0.01N HCl, pH 1.9, simulated gastric fluid, 0.01N HCl, pH 1.9, 20 to 25° C., 12-48 hours, read-out: Solubility): 350 µg/mL | solubility ([2]; FaSIF, pH 6.8, fassif, FaSIF, pH 6.8, 20 to 25° C., 12-48 hours, read-out: Solubility): 440 µg/mL | solubility ([2]; PBS, pH 6.9, aqueous buffer, PBS, pH 6.9, 20 to 25° C., 12-48 hours, read-out: Solubility): 180 µg/mL | solubility ([2]; SGF, pH 2.1, aqueous with cosolvent or surfactant or cyclodextrin, SGF (0.25% (w/v) SDS 0.2% (w/v) NaCl in 0.01N HCl), pH 2.1, 20 to 25° C., 12-48 hours, read-out: Solubility): 1440 µg/mL | solubility ([2]; aqueous medium, pH adjusted with HCl, pH 0.73, aqueous buffer, pH 0.73 (adjusted with HCl), read-out: solubility): 9740 µg/mL | solubility ([2]; aqueous medium, pH adjusted with methane sulfonic acid, pH 0.8, aqueous buffer, pH 0.80 (adjusted with methane sulfonic acid), read-out: solubility): 12400 µg/mL | solubility at 40 h ([2]; water, pH 4.7, water, Sample 1, duration 40 h, isolation method 1, pH 4.70, about 20 to 25° C.): 253 µg/mL | solubility ([2]; water, water, water, pH about 4 to about 7, about 20° C. to about 25° C., read-out: aqueous solubility): 260 µg/mL | total weight gain ([3]; between about 40% and about 90% relative humidity): about 0.2 wt. % | hygroscopicity ([3]; dynamic vapor sorption): non-hygroscopic | solubility ([4]; aqueous with cosolvent or surfactant or cyclodextrin, 25% Dimethyl sulfoxide in water, solid form: monohydrate): 590 µg/mL | solubility ([4]; aqueous with cosolvent or surfactant or cyclodextrin, 50% Dimethyl sulfoxide in water, solid form: monohydrate): 1020 µg/mL | solubility ([4]; aqueous with cosolvent or surfactant or cyclodextrin, 75% Dimethyl sulfoxide in water, solid form: monohydrate): 8450 µg/mL | solubility ([4]; organic solvent or mixture, Acetonitrile, solid form: monohydrate (extra peak observed)): 127000 µg/mL | solubility ([4]; organic solvent or mixture, Ethanol, solid form: monohydrate): 29700 µg/mL | solubility ([4]; organic solvent or mixture, Ethyl Acetate, solid form: monohydrate): 20100 µg/mL | solubility ([4]; organic solvent or mixture, Isopropanol, solid form: monohydrate): 8800 µg/mL | solubility ([4]; organic solvent or mixture, Methanol, solid form: monohydrate): 53900 µg/mL | solubility ([4]; organic solvent or mixture, Methyl Ethyl Ketone, solid form: monohydrate + trace acetone solvate): 45800 µg/mL | solubility ([4]; organic solvent or mixture, Toluene, solid form: monohydrate): 1900 µg/mL | Area % (215 nm), peak 2, RRT 1.09 ([5]; Initial): <0.1 Area % | Area % (215 nm), peak 3, RRT 1.25 ([5]; Initial): <0.1 Area % | Area % (215 nm), peak 4, RRT 1.53 ([5]; Initial): <0.1 Area % | Area % (215 nm), peak monohydrate, RRT 1.00 ([5]; Initial): 100.0 Area % | Total Impurities, Area % (215 nm) ([5]; Initial): <0.1 Area % | Area % (215 nm), peak 2, RRT 1.09 ([5]; Week 2, 25/60): 0.27 Area % | Area % (215 nm), peak 3, RRT 1.25 ([5]; Week 2, 25/60): 0.28 Area % | Area % (215 nm), peak 4, RRT 1.53 ([5]; Week 2, 25/60): 0.28 Area % | Area % (215 nm), peak monohydrate, RRT 1.00 ([5]; Week 2, 25/60): 99.18 Area % | Total Impurities, Area % (215 nm) ([5]; Week 2, 25/60): 0.82 Area % | Area % (215 nm), peak 2, RRT 1.09 ([5]; Week 2, 40/75): 0.31 Area % | Area % (215 nm), peak 3, RRT 1.25 ([5]; Week 2, 40/75): 0.35 Area % | Area % (215 nm), peak 4, RRT 1.53 ([5]; Week 2, 40/75): <0.1 Area % | Area % (215 nm), peak monohydrate, RRT 1.00 ([5]; Week 2, 40/75): 99.35 Area % | Total Impurities, Area % (215 nm) ([5]; Week 2, 40/75): 0.65 Area % | Area % (215 nm), peak 2, RRT 1.09 ([5]; Week 2, 60 C.): 0.25 Area % | Area % (215 nm), peak 3, RRT 1.25 ([5]; Week 2, 60 C.): 0.27 Area % | Area % (215 nm), peak 4, RRT 1.53 ([5]; Week 2, 60 C.): 0.27 Area % | Area % (215 nm), peak monohydrate, RRT 1.00 ([5]; Week 2, 60 C.): 99.21 Area % | Total Impurities, Area % (215 nm) ([5]; Week 2, 60 C.): 0.79 Area % | Area % (215 nm), peak 2, RRT 1.09 ([5]; Week 4, 25/60): <0.1 Area % | Area % (215 nm), peak 3, RRT 1.25 ([5]; Week 4, 25/60): <0.1 Area % | Area % (215 nm), peak 4, RRT 1.53 ([5]; Week 4, 25/60): <0.1 Area % | Area % (215 nm), peak monohydrate, RRT 1.00 ([5]; Week 4, 25/60): 99.90 Area % | Total Impurities, Area % (215 nm) ([5]; Week 4, 25/60): 0.01 Area % | Area % (215 nm), peak 2, RRT 1.09 ([5]; Week 4, 40/75): <0.1 Area % | Area % (215 nm), peak 3, RRT 1.25 ([5]; Week 4, 40/75): <0.1 Area % | Area % (215 nm), peak 4, RRT 1.53 ([5]; Week 4, 40/75): <0.1 Area % | Area % (215 nm), peak monohydrate, RRT 1.00 ([5]; Week 4, 40/75): 99.86 Area % | Total Impurities, Area % (215 nm) ([5]; Week 4, 40/75): 0.14 Area % | Area % (215 nm), peak 2, RRT 1.09 ([5]; Week 4, 60 C.): <0.1 Area % | Area % (215 nm), peak 3, RRT 1.25 ([5]; Week 4, 60 C.): <0.1 Area % | Area % (215 nm), peak 4, RRT 1.53 ([5]; Week 4, 60 C.): <0.1 Area % | Area % (215 nm), peak monohydrate, RRT 1.00 ([5]; Week 4, 60 C.): 99.90 Area % | Total Impurities, Area % (215 nm) ([5]; Week 4, 60 C.): <0.1 Area % | Area % (215 nm), peak 2, RRT 1.09 ([5]; Week 8, 25/60): <0.1 Area % | Area % (215 nm), peak 3, RRT 1.25 ([5]; Week 8, 25/60): <0.1 Area %
SMILES: COCCOc1cnc2ccn([C@H](C)c3nnc4c(F)cc(-c5cnn(C)c5)cn34)c(=O)c2c1 [free base monohydrate form of Compound M, 6-{(1R)-1-[8-fluoro-6-(1-methyl-1H-pyrazol-4-yl)[1,2,4]triazolo[4,3-a]pyridin-3-yl]ethyl}-3-(2-methoxyethoxy)-1,6-naphthyridin-5(6H)-one]
changes in solid state properties ([5]; 25° C./60% RH, 40° C./75% RH and 60° C./ambient RH for 12 weeks): no changes in solid state properties were observed
